Experiments:
[1] = test system: human multiple myeloma RPMI8226 cells; assay: Inhibitory activity against human multiple myeloma RPMI8226 cell growth (CellTiter-Glo); type: cell-based; conditions: Homo sapiens, RPMI-8226, 192 h, 1 μM test compound, cultured for 8 days; read-out: Percent inhibition of RPMI8226 cell growth (%)
Procedure: The compound of the present invention was evaluated for its inhibitory activity against human multiple myeloma RPMI8226 cell growth by the following method.
A suspension of human multiple myeloma RPMI8226 cells (purchased from the Health Protection Agency) was inoculated at 40 μL (300 cells/well) to a 384-well plate and cultured at 37° C. for 1 day in a 5% CO2 incubator. After the culture, each test compound solution was added thereto at a test concentration of 1 μM using TECAN D300, and the cells were further cultured for 8 days. After the culture, CellTiter-Glo™ Luminescent Cell Viability Assay reagent (Promega) was added at 40 μL/well to a 384-well plate, and the amount of luminescence was measured using a luminometer. Inhibitory activity against human multiple myeloma RPMI8226 cell growth (percent inhibition (%)) of the test compound was calculated according to the following formula, which is based on the hypothesis that the amount of residual ATP reflects the number of cells. In this formula, 100% control represents the amount of luminescence from a well with only 0.1% DMSO added. Percent inhibition (%)=(1−(amount of luminescence of the test compound)÷(100% control))×100

[2] = biological target: T1, CDC2L6/CycC (CDK19) (Homo sapiens, UniProt Q9BWU1); assay: CDK19 inhibitory activity (Kinase Tracer-236 / Eu-anti-GST fluorescence assay); type: binding; set-up: Percent inhibition of CDK19 activity (%): concentration or dose not given beside the values; conditions: test compound concentration given as '1 1.1.1\4' [sic]
T1 construct: purchased Carna Biosciences Inc
Procedure: (§1) The compound of the present invention was evaluated for its CDK8 inhibitory activity and CDK19 inhibitory activity by the following method. […] The primary diluted solution was dispensed in the amount of 2 μL/well to a 384-well plate, and then, a mixed solution of Eu^3+ Cryptate conjugated mouse monoclonal antibody anti-glutathione S-transferase (Cisbio) diluted 267-fold with an assay buffer and 60 nM Kinase Tracer-236 (Life technologies) was added thereto at 2 μL/well. […] After the addition, the plate was left standing at room temperature for 1 hour, and then, the fluorescence intensity (excitation wavelength 320 nm, fluorescence wavelength 615 nm, 665 nm, delay time 50 μsec) was measured using ann EnVision plate reader (PerkinElmer). The percent inhibition of CDK8 or CDK19 activity by the test compound can be calculated according to the following formula, wherein the fluorescence intensity of a reaction solution in the absence of compound is defined as the control, and the fluorescence intensity of a reaction solution in the presence of 10 μM of control compound is defined as the blank.

[3] = biological target: T2, CDK8/CycC (Homo sapiens, UniProt P49336); assay: CDK8 inhibitory activity (Kinase Tracer-236 / Eu-anti-GST fluorescence assay); type: binding; set-up: Percent inhibition of CDK8 activity (%): concentration or dose not given beside the values; conditions: test compound concentration given as '1 1.1.1\4' [sic]
T2 construct: purchased Carna Biosciences
Procedure: as §1

T1 sequence (Q9BWU1 whole entry): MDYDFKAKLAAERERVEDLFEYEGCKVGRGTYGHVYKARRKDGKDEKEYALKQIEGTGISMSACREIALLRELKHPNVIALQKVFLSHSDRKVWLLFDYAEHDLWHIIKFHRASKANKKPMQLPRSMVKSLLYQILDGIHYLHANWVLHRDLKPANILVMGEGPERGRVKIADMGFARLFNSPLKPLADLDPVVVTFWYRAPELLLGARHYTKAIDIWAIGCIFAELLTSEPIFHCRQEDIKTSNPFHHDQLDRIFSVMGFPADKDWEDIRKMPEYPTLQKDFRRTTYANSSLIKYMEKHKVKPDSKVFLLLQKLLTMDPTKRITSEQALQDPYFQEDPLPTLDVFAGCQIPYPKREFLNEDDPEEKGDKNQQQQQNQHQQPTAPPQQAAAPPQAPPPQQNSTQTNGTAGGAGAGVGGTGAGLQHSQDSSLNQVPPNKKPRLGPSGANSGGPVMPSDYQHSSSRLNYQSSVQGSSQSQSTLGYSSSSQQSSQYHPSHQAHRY
T1 sequence (P24863 whole entry partner): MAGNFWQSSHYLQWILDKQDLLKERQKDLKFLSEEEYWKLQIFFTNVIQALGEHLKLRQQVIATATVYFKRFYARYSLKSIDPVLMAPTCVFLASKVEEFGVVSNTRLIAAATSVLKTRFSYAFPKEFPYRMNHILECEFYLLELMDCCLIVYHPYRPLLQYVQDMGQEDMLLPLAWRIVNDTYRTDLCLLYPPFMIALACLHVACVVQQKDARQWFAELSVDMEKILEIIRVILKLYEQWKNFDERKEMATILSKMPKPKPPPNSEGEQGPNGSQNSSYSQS
T2 sequence (P49336 whole entry): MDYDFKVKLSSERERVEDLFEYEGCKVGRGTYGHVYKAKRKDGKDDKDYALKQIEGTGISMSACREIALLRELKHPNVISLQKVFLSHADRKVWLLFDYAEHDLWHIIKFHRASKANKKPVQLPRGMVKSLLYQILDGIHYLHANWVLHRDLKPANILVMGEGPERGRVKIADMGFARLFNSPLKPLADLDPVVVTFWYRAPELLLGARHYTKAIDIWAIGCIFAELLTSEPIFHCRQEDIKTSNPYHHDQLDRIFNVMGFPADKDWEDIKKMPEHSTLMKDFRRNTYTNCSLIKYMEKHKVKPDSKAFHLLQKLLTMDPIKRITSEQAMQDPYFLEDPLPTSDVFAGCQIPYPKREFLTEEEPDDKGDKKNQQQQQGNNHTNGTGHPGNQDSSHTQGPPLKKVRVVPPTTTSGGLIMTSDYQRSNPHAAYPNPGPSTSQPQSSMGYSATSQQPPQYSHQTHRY
T2 sequence (P24863 whole entry partner): as the sequence (P24863 whole entry partner) above

Percent inhibition of CDK19 activity (%) [2] [%]	Percent inhibition of CDK8 activity (%) [3] [%]	SMILES	inhibition at 1 µM [1] [%]
102	104	Cc1nc(NC(=O)C2CC2)ccc1Oc1sc(C(N)=O)c2c1-c1sncc1CC2 [Example 30, 8-((6-((Cyclopropylcarbonyl)amino)-2-methylpyridin-3-yl)oxy)-4,5-dihydrothieno[3,4-g][1,2]benzothiazole-6-carboxamide]	71
101	103	Cc1nc(NC(=O)C2(O)CC2)ccc1Oc1sc(C(N)=O)c2c1-c1sncc1CC2 [Example 31, 8-((6-(((1-Hydroxycyclopropyl)carbonyl)amino)-2-methylpyridin-3-yl)oxy)-4,5-dihydrothieno[3,4-g][1,2]benzothiazole-6-carboxamide]	59
98	100	CON(C)C(=O)c1sc(Oc2cccnc2C)c2c1CCc1cnsc1-2 [Example 34, N-Methoxy-N-methyl-8-((2-methylpyridin-3-yl)oxy)-4,5-dihydrothieno[3,4-g][1,2]benzothiazole-6-carboxamide]	50
94	95	Cc1ncccc1Oc1sc(C(=O)Nc2ncco2)c2c1-c1sncc1CC2 [Example 37, 8-((2-Methylpyridin-3-yl)oxy)-N-(1,3-oxazol-2-yl)-4,5-dihydrothieno[3,4-g][1,2]benzothiazole-6-carboxamide]	73
100	97	Cc1ncccc1Oc1sc(C(=O)NO)c2c1-c1sncc1CC2 [Example 38, N-Hydroxy-8-((2-methylpyridin-3-yl)oxy)-4,5-dihydrothieno[3,4-g][1,2]benzothiazole-6-carboxamide]	67
95	97	CC(=O)c1sc(Oc2cccnc2C)c2c1CCc1cnsc1-2 [Example 39, 1-(8-((2-Methylpyridin-3-yl)oxy)-4,5-dihydrothieno[3,4-g][1,2]benzothiazol-6-yl)ethanone]	60
93	103	Cc1ncccc1Oc1sc(C(N)=O)c2c1-c1snnc1CC2 [Example 43, 8-((2-Methylpyridin-3-yl)oxy)-4,5-dihydrothieno[3,4-g][1,2,3]benzothiadiazole-6-carboxamide]	49
100	105	Cc1nn(C)cc1Oc1sc(C(N)=O)c2c1-c1sncc1CC2 [Example 47, 8-((1,3-Dimethyl-1H-pyrazol-4-yl)oxy)-4,5-dihydrothieno[3,4-g][1,2] benzothiazole-6-carboxamide]	57
99	99	CC(C)S(=O)(=O)c1ccc(Oc2sc(C(N)=O)c3c2-c2sncc2CC3)cc1 [Example 50, 8-(4-(isopropylsulfonyl)phenoxy)-4,5-dihydrothieno[3,4-g][1,2]benzothiazole-6-carboxamide]	58
99	102	NC(=O)c1sc(Oc2ccc(S(F)(F)(F)(F)F)cc2)c2c1CCc1cnsc1-2 [Example 89]	54
96	87	NC(=O)c1sc(Oc2ccc(N)nc2)c2c1CCc1cnsc1-2 [Example 93, 8-((6-Aminopyridin-3-yl)oxy)-4,5-dihydrothieno[3,4-g][1,2]benzothiazole-6-carboxamide]	63

More lines, now with the values behind:

SMILES	Percent inhibition of CDK19 activity (%) [2] [%]	Percent inhibition of CDK8 activity (%) [3] [%]	inhibition at 1 µM [1] [%]
Cc1nc(N)ccc1Oc1sc(C(N)=O)c2c1-c1sncc1CC2 [Example 29, 8-((6-Amino-2-methylpyridin-3-yl)oxy)-4,5-dihydrothieno[3,4-g][1,2]benzothiazole-6-carboxamide]	100	98	70
NC(=O)c1sc(Oc2ccc(=O)[nH]c2)c2c1CCc1cnsc1-2 [Example 33, 8-((6-Oxo-1,6-dihydropyridin-3-yl)oxy)-4,5-dihydrothieno[3,4-g][1,2]benzothiazole-6-carboxamide]	99	101	69
Cc1ncccc1Oc1sc(C#N)c2c1-c1sncc1CC2 [Example 40, 8-((2-Methylpyridin-3-yl)oxy)-4,5-dihydrothieno[3,4-g][1,2]benzothiazole-6-carbonitrile]	58	69	61
CCCSc1sc(C(N)=O)c2c1-c1sncc1CC2 [Example 52, 8-(Propylsulfanyl)-4,5-dihydrothieno [3,4-g][1,2]benzothiazole-6-carboxamide]	95	98	65
CS(=O)(=O)c1ccc(Oc2sc(C(N)=O)c3c2-c2sncc2CC3)cc1 [Example 53, 8-(4-(Methylsulfonyl)phenoxy)-4,5-dihydrothieno[3,4-g][1,2]benzothiazole-6-carboxamide]	99	100	61
Cc1ncccc1Oc1sc(C(=O)NOCc2ccccc2)c2c1-c1sncc1CC2 [Example 58, N-(Benzyloxy)-8-((2-methylpyridin-3-yl)oxy)-4,5-dihydrothieno[3,4-g][1,2] benzothiazole-6-carboxamide]	101	100	49
Cc1ncccc1Oc1sc(C(=O)Nn2cccc2)c2c1-c1sncc1CC2 [Example 87, 8-((2-Methylpyridin-3-yl)oxy)-N-(1H-pyrrol-1-yl)-4,5-dihydrothieno [3,4-g][1,2]benzothiazole-6-carboxamide]	100	100	48
NC(=O)c1sc(Oc2ccc(C(F)(F)F)cc2)c2c1CCc1cnsc1-2 [Example 90]	102	102	55
CN(C)C(=O)c1ccc(Oc2sc(C(N)=O)c3c2-c2sncc2CC3)cn1 [Example 91]	95	90	58
NC(=O)c1sc(Oc2cncc(Br)c2)c2c1CCc1cnsc1-2 [Example 92, 8-((5-Bromopyridin-3-yl)oxy)-4,5-dihydrothieno[3,4-g][1,2]benzothiazole-6-carboxamide]	95	89	58
CC(=O)Nc1ccc(Oc2sc(C(N)=O)c3c2-c2sncc2CC3)cn1 [Example 94, 8-((6-Acetamidopyridin-3-yl)oxy)-4,5-dihydrothieno[3,4-g][1,2]benzothiazole-6-carboxamide]	97	90	63
CCOCCOc1sc(C(N)=O)c2c1-c1sncc1CC2 [Example 95, 8-(2-Ethoxyethoxy)-4,5-dihydrothieno [3,4-g][1,2]benzothiazole-6-carboxamide]	89	97	69
Cn1cc(Oc2sc(C(N)=O)c3c2-c2sncc2CC3)cn1 [Example 96, 8-((1-Methyl-1H-pyrazol-4-yl)oxy)-4,5-dihydrothieno[3,4-g][1,2] benzothiazole-6-carboxamide]	100	110	69
COCC(=O)Nc1ccc(Oc2sc(C(N)=O)c3c2-c2sncc2CC3)cn1 [Example 97, 8-((6-((Methoxyacetyl)amino)pyridin-3-yl)oxy)-4,5-dihydrothieno[3,4-g][1,2] benzothiazole-6-carboxamide]	99	103	55

— patent US9745325B2, “Fused heterocyclic compound” (Takeda Pharmaceutical Company Limited, priority 2014, dated 2017)
